Results: patent publication US4826984A, “Heteroarotinoid compounds as anticancer agents” (The Board of Regents for the Oklahoma Agricultural and …, priority 1987, dated 1989)
Several values for one entry are separate records, joined by “and”; a condition that tells them apart may be missing. Equal entries are not always repeated. Entries after “also recorded” stand apart in the source; their conditions may differ. Where two headings read alike, the source gives them in different places. One block for each compound: values may come before it.

Key:
[1] = system: tracheal organ cultures obtained from vitamin A deficient hamsters; assay: tissue or blood; format: cell-based, hamster; conditions: for EC50: Mesocricetus auratus, dose for reversal of keratinization in epithelium of 50% of retinoid-deficient hamster tracheas in organ culture, trans-retinoic acid run with each compound, read-out: ED50 (the source's name); for activity relative to all trans-retinoic acid: log units less than the standard; for activity (in words): reversal of keratinization
Text: An evaluation of the anticancer properties of the heteroarotinoids was made via the standard hamster tracheal organ culture bioassay (see D. L. Newton, W. R. Henderson, and M. B. Sporn in Structure-Activity Relationships of Retinoids, National Cancer Institute, Revised Edition, Feb. 26, 1980; and D. L. Newton, W. R. Henderson, and M. B. Sporn, Cancer Research, 40, 3413 [1980]). The assay involves the ability of a test compound in vitro to reverse keratinization in tracheal organ cultures obtained from vitamin A deficient hamsters. The relationship of vitamin A deficient epithelial tissues and precancerous lesions is well known (see C. E. Orfanos, Retinoids-Advances in Basic Research and Therapy, Springer-Verlag, New York, 1981). For example, the addition of retinoids can reverse the anaplastic epithelial lesions induced in prostate glands by chemical carcinogens (see D. P. Chopra and L. J. Wilkoff, Proc. Am Assoc. Cancer Research, 16, 35 (1975); and I. Lasnitzki, British Journal of Cancer, 9, 434 [1955]). The basic procedure for the bioassay involving the vitamin A deficient hamster tracheal organ culture is presented below with the results obtained for some of the compositions.
The harvested tracheas were cultured in a serum-free medium and were gassed with 50% O2, 45% N2, and 5% CO2. The serum-free culture consists of CMRL Medium 1066 with crystalline bovine insulin (1.0 μg/mL), hydrocortisone hemisuccinate (0.1 μg/mL), glutamine (2 mM), pencillin (100 inits/mL), and streptomycin (100 μg/mL). The cultures were incubated for 3 days at 35°-36° C. After incubation in the retinoid-free medium, some of the tracheas were harvested. Most of the specimens had significant squamous metaplasia. The remaining cultures were divided into 3 groups. The first group was treated with the experimental heteroarotinoid in spectrograde dimethyl sulfoxide (DMSO) at concentrations of 10^-8 M, 10^-9 M, and 10^-10 M (final concentration of DMSO in culture medium was 0.1%). […] A final culture was prepared with only DMSO present.
The culture medium was changed three times per week for 10 days. At the end of that time, all tracheas were harvested and fixed in a 4% (or sometimes 10%) formaldehyde-1% glutaraldehyde solution. The material was then embedded in paraffin and cross-sections of the tracheas were examined under a microscope for the presence of keratin or keratohyaline granules. A synthetic retinoid was judged as having good anticancer activity if neither keratin nor keratohyaline granules were present or if only keratohyaline granules were […]. […] Sloughing of the cells in the culture studies was common with the toxic all trans-retinotic acid but was not observed with the heteroarotinoids in this work.
^a ED50 (M) is the dose for reversal of keratinization in
epithelium of 50% of retinoiddeficient hamster tracheas in organ culture.

[2] = system: ornithine decarboxylase (ODC); assay: suppression of TPA induced ornithine decarboxylase (ODC) in mouse skin; format: in vivo; conditions: for activity in inhibiting ODC induction by TPA (in words): mouse, in vivo
Experimental: In the ODC assay, either 13-cis-retinoic acid or trans-retinoic acid was employed. The following Table summarizes the result of the ODC assays.
In the screening tests of the Table, the selected retinoids in 0.2 ml of acetone were applied 1 hour before the application of 10 nmole of TPA to the shaved backs of mice; the mice where then sacrificed for ODC assay 5 hours after TPA treatment. Epidermus was separated, homogenized, and centrifuged at 30,000×g. Soluble epidermal ODC activity was assayed. The retinoids were evaluated in three independent experiments (3 groups of mice with 3 mice per group) and the results from the experiments were normalized (% inhibition) for comparison. […] Which standard is used appears to be relatively unimportant for determining activity in the assay, but the data presented in the Table identifies the standard for sake of clarity and accuracy of presentation. Thus, the presence of the heteroatom in these arotinoids has not eliminated biological activity. […] Consequently, the nature of the terminus group is also important.

HL-60 cells = assay: induction of differentiation of HL-60 cells (NBT reduction); format: cell-based, human; conditions: for cells induced to differentiate: 3 μM; for EC50: Homo sapiens
Experimental: In order to evaluate the efficacy of the heteroarotinoids to induce HL-60 cell differentiation along the granulocytic maturation pathway, HL-60 cells were grown in a serum-free medium consisting of HRPMI 1640 supplemented with […] 4-(2-hydroxyethyl)-1-piperazineethane sulfonic acid, 5 μg of insulin/mL, and 5 μg of transferrin/mL. These mature cells, unlike the uninduced HL-60, produced superoxide anion when simulated with an appropriate agent, such as TPA. The ability of the individual cells to produce superoxide can be measured by incubating cells with the water-soluble yellow dye, nitroblue tetrazolium (NBT). NBT is reduced to a water-insoluble blue-black formazan by superoxide. This formazan precipitate is associated with those cells that produce superoxide. Thus, the percentage of cells in a population that produce superoxide (NBT-positive cells) can be enumerated under a light microscope.
After incubation for 4 days at 37° C. in a humidified atmosphere of 5% CO2 and air, the capacity of the cells to reduce NBT was determined. Viable cells (10^6) were harvested by centrifugation and suspended in 0.5 mL of RPMI 1640 containing 20% fetal bovine serum. This cell suspension was mixed with an equal volume of phosphate buffered saline containing 1 mg of NBT/mL and […]. The reaction mixture was incubated at 37° C. for 25 minutes, and the reaction was terminated by cooling in an ice water bath. Cytospin slides were prepared from a portion of this reaction mixture and stained with Wright-Giemsa. A minimum of 200 cells were counted under light microscopy to determine the percentage of cells with cell-associated formazan.

[3] = system: tracheal organ cultures obtained from vitamin A deficient hamsters; conditions: value stated for the standard in the method; read-out: ED50 (the source's name); cited from earlier work
[4] = single large doses; cited from earlier work
[5] = 17 nmol retinoid + TPA, first experiment
[6] = 17 nmol retinoid + TPA, second experiment
[7] = 13-cis-retinoic acid as the standard
[8] = HL-60, 96 h, 4 days at 37° C., read-out: ED50 (half-maximal response)
[9] = 34 nmol retinoid + TPA, third experiment (standard trans-retinoic acid)
[10] = trans-retinoic acid as a standard
[11] = 34 nmol retinoid + TPA, second experiment (standard 13-cis-retinoic acid)

Compound: CCOC(=O)c1ccc(/C=C(\C)c2ccc3c(c2)C(C)(C)CCS3)cc1 [1 (X = S, R = C2 H5), Ethyl (E)-4-[2-(3,4-dihydro-4,4-dimethyl-2H-1-benzothiopyran-6-yl)-1-propenyl]benzoate]
% Active ([1]; 10^-9 M): 100%
% Active ([1]; 10^-10 M): 53.8%
% Active ([1]; 10^-11 M): 28.6%
% Active ([1]; 10^-12 M): 33.7%
EC50 [1]: 0.06 nM
activity relative to all trans-retinoic acid [1]: approximately one-half log unit less than the all trans-retinoic acid
activity (in words) [1]: very good activity

Compound: CC1=C(/C=C/C(C)=C/C=C/C(C)=C\C(=O)O)C(C)(C)CCC1 [13-cis-retinoic acid, reference compound]
% of Inhibition as Compared to Control [2, 5]: 89%
ODC Activity [2, 5]: 0.1 ± 0.01 nmol CO2 /30 min/mg protein
% of Inhibition as Compared to Control [2, 6]: 92%
ODC Activity [2, 6]: 0.14 ± 0.04 nmol CO2 /60 min/mg protein
relative activities in suppressing TPA induction of ODC [2, 7]: 13-cis-retinoic acid 31>34

Compound: CCOC(=O)c1ccc(/C=C(\C)c2ccc3c(c2)C(C)(C)CC[S+]3[O-])cc1 (centres unmarked) [(X = S)--O, R = C2 H5), Ethyl (E)-4-[2-(3,4-Dihydro-4,4-dimethyl-2H-1-benzothiopyran-1-oxo-6-yl)-1-propenyl]benzoate]
% Active ([1]; 10^-8 M): 71.4%
% Active ([1]; 10^-9 M): 71.4%
% Active ([1]; 10^-10 M): 18.6%
EC50 [1]: 0.6 nM
activity (in words) [1]: less active but nevertheless displayed activity within the range of the standard

Compound: COC(=O)c1ccc(/C=C(/C)c2ccc3c(c2)C(C)(C)CO3)cc1 [compound 25]
cells induced to differentiate (HL-60 cells): 3 to 5%

Compound: C/C(=C\c1ccc(C(=O)O)cc1)c1ccc2c(c1)C(C)(C)CO2 [compound 26, (E)-4-[2-(2,3-Dihydro-3,3-dimethyl-5-benzofuranyl)-1-propenyl]benzoic acid]
EC50 (HL-60 cells; [8]): > 3000 nM

Compound: C/C(=C\c1ccc(C#N)cc1)c1ccc2c(c1)C(C)(C)CCO2 [compound 34]
ODC Activity [2, 11]: 1.77 ± 0.32 nmol CO2 /60 min/mg protein
relative activities in suppressing TPA induction of ODC [2, 7]: 13-cis-retinoic acid 31>34

Compound: C/C(=C\c1ccc(CO)cc1)c1ccc2c(c1)C(C)(C)CCO2 [compound 35, (E)-4-[2-Methyl-2-(4,4-dimethyl-6-chromanyl)]benzyl Alcohol]
% of Inhibition as Compared to Control [2, 9]: 68%
ODC Activity [2, 9]: 1.7 ± 0.1 nmol CO2 /60 min/mg protein
activity in inhibiting ODC induction by TPA (in words) [2]: less active
relative activities in suppressing TPA induction of ODC [2, 10]: trans-retinoic acid >24>35>36
EC50 (HL-60 cells; [8]): > 3000 nM

Compound: C/C(=C\c1ccc(C=O)cc1)c1ccc2c(c1)C(C)(C)CCO2 [compound 36]
% of Inhibition as Compared to Control [2, 9]: 34%
ODC Activity [2, 9]: 3.5 ± 0.2 nmol CO2 /60 min/mg protein
activity in inhibiting ODC induction by TPA (in words) [2]: less active
relative activities in suppressing TPA induction of ODC [2, 10]: trans-retinoic acid >24>35>36

Compound: CC1=C(/C=C/C(C)=C/C=C/C(C)=C/C(=O)O)C(C)(C)CCC1 [trans-retinoic acid, all trans-retinoic acid, reference compound]
% of Inhibition as Compared to Control [2, 9]: 81%
ODC Activity [2, 9]: 1.0 ± 0.1 nmol CO2 /60 min/mg protein
relative activities in suppressing TPA induction of ODC [2, 10]: trans-retinoic acid >24>35>36
Sloughing of the cells in the culture studies [1]: common
% Active ([1]; 10^-11 M): 50.0% and 41.7% and 53.8%
% Active ([1]; 10^-12 M): 16.7% and 33.3% and 23.1%
% Active ([1]; concentration printed 11^-11 M): 50.0%
% Active ([1]; concentration printed 12^-12 M): 23.1%
EC50 [3]: 0.01 nM
acute toxicity [4]: acutely toxic in single large doses

Further lines, with some results ahead:

EC50 [1]: 0.1 nM
Compound: CCOC(=O)c1ccc(/C=C(\C)c2ccc3c(c2)C(C)(C)CCO3)cc1 [(X = O, R = C2 H5), Ethyl (E)-4-[2-(3,4-Dihydro-4,4-dimethyl-2H-1-benzopyran-6-yl)-1-propenyl]benzoate]
% Active ([1]; 10^-9 M): 100%
% Active ([1]; 10^-10 M): 50.0%
% Active ([1]; 10^-11 M): 28.2%
activity relative to all trans-retinoic acid [1]: only one log unit less than the standard all trans-retinoic acid
activity (in words) [1]: good activity

EC50 [1]: 0.2 nM
Compound: C/C(=C\c1ccc(C(=O)O)cc1)c1ccc2c(c1)C(C)(C)CCO2 [(X = O, R = H), (E)-4-[2-(3,4-Dihydro-4,4-dimethyl-2H-1-benzopyran-6-yl)-1-propenyl]benzoic Acid]
% Active ([1]; 10^-8 M): 100%
% Active ([1]; 10^-9 M): 100%
% Active ([1]; 10^-10 M): 57.1%
% Active ([1]; 10^-11 M): 11.14%
activity relative to all trans-retinoic acid [1]: only one log unit less than the standard all trans-retinoic acid
activity (in words) [1]: good activity

EC50 (HL-60 cells; [8]): > 3000 nM
EC50 (HL-60 cells; HL-60, restated in discussion, read-out: ED50 (the source's name)): < 3000 nM
Compound: C/C(=C\c1ccc(C(=O)O)cc1)c1ccc2c(c1)C(C)(C)CCO2 [acid derived from 34]
cells induced to differentiate (HL-60 cells): approximately 15%

relative activities in suppressing TPA induction of ODC [2, 10]: trans-retinoic acid >24>35>36
EC50 (HL-60 cells; [8]): > 3000 nM
Compound: COC(=O)c1ccc(/C=C(\C)c2ccc3c(c2)C(C)(C)CO3)cc1 [compound 24, Methyl (E)-4-[2-(2,3-Dihydro-3,3-dimethyl-5-benzofuranyl)-1-propenyl]benzoate]
% of Inhibition as Compared to Control [2, 9]: 72%
ODC Activity [2, 9]: 1.5 ± 0.4 nmol CO2 /60 min/mg protein
activity in inhibiting ODC induction by TPA (in words) [2]: strongest activity; also recorded: strong activity as compared to the control
cells induced to differentiate (HL-60 cells): 3 to 5%

relative activities in suppressing TPA induction of ODC [2, 7]: 13-cis-retinoic acid 31>34
activity in inhibiting ODC induction by TPA (in words) [2]: less active
EC50 (HL-60 cells; [8]): > 3000 nM
Compound: COC(=O)c1ccc(/C=C(\C)c2ccc3c(c2)C(C)(C)CCO3)cc1 [compound 31, Methyl (E)-4-[2-(3,4-Dihydro-4,4-dimethyl-2-H-1-benzopyran-6-yl)-1-propenyl]benzoate]
% of Inhibition as Compared to Control [2, 11]: 43%
ODC Activity [2, 11]: 0.95 ± 0.06 nmol CO2 /60 min/mg protein
cells induced to differentiate (HL-60 cells): approximately 15%
